From patent US7647217B2, “Structure of the farnesoid X receptor ligand binding domain and methods of use therefor” (The Salk Institute for Biological Studies, priority 2002, dated 2010)

Target: T1, mouse FXR (Mus musculus, UniProt Q60641)
T1 construct: expressed in transfected cells; host or cells: CV-1 (monkey)
T1 sequence (Q60641 1-488): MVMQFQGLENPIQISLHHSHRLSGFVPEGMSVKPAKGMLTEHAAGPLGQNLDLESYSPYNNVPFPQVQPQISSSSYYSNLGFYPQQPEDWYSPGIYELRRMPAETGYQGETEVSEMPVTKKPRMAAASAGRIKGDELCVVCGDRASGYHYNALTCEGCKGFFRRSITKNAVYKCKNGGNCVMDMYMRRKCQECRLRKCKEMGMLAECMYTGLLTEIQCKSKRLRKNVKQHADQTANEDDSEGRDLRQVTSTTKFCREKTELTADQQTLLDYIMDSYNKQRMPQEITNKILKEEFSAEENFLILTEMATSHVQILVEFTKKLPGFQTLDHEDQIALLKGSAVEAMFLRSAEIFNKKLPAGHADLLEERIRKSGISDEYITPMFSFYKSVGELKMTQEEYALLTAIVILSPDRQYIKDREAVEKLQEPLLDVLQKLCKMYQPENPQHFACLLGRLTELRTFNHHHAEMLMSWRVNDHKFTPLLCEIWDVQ
T1 sequence (P19793 1-462 partner): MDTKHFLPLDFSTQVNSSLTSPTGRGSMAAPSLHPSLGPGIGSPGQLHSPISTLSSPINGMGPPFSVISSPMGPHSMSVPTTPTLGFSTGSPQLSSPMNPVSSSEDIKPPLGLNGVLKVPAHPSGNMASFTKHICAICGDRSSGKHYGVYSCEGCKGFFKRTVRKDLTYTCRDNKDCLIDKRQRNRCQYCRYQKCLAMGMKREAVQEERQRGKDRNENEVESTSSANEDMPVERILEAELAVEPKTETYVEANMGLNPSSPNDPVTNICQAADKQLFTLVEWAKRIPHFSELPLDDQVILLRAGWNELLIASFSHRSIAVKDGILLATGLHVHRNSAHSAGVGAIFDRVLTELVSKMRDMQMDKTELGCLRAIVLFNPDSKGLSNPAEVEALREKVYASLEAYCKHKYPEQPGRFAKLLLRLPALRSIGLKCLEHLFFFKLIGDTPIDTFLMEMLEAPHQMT
Assay: CV-1 reporter gene assay, mFXR/hRXR with TK minimal, TK-ECRE*6 or TK-ER8*2 luciferase reporter
Type: cell-based
Settings: for activity on FXRE reporters / concentration at which maximal activity is achieved: ECRE and ER-8 reporters; for activation of ECRE FXRE reporter: CV-1, TK-ECRE*6; for activation of ER-8 FXRE reporter: CV-1, TK-ER8*2
Procedure: FIGS. 2A-2F collectively show the results of ligand activation of CV-1 cells co-transfected with FXR constructs pCMX-mFXR and pCMX-hRXR and a luciferase reporter gene containing various promoters as follows: FIG. 2A with a minimal TK promoter, FIG. 2B with a TK-ECRE*6 promoter, FIG. 2C with a TK-ER8*2 promoter, FIG. 2D with HIBABP promoter, FIG. 2E with a hPLTP promoter, or FIG. 2 with a FhMRP-2 promoter.
For transfection of these constructs, monkey CV-1 HEPG2 and HEK293T cells were grown in DMEM supplemented with 10% FBS, 50 U/ml penicillin G, and 50 μg/ml streptomycin sulfate at 37° C. in 7% CO2. CV-1 cells (60%-70% confluence, 48-well plate) were cotransfected with 16.6 ng of the appropriate expression vector, 100 ng of reporter plasmid, and 100 ng of pCMX-LacZ in 200 μl of DMEM containing 10% FBS by the N-[1-(2,3-dioleoyloxy)propyl]-N,N,N-trimethylammonium methylsulfate (DOTAP)-mediated procedure. After 24 hr, the medium was replaced, and cells were harvested and assayed for luciferase activity 36-48 hr after transfection. The luciferase activity was normalized to the level of β-galactosidase activity. Each transfection was performed in triplicate and repeated at least three times.
The ability of these compounds to activate the receptor in a number of different cell-based reporter gene assays was then determined. […] CV-1 cells were transiently transfected with an expression plasmid for mouse FXR and human RXR with a thymidine kinase (minimal promoter reporter vector containing either no copies or six copies of the ecdysone response element (ECRE), a well-characterized FXR response element (FXRE). In addition, two copies of the recently identified FXRE everted repeat separated by 8 nucleotides (ER-8) was also studied (see, for example, Laffitte et al. (2000). Identification of the DNA binding specificity and potential target genes for the farnesoid X-activated receptor. J Biol. Chem. 275(14), 10638-47; Kast et al. (2002). Regulation of multidrug resistance-associated protein 2 (ABCC2) by the nuclear receptors pregnane X receptor, farnesoid X-activated receptor, and constitutive androstane receptor. J Biol Chem. 277(4), 2908-15).
Similar results were found in a variety of different cell types including liver cells (HEPG2) and kidney cells (HEK 293).

SMILES	activity on FXRE reporters	activation of ECRE FXRE reporter [fold]	activation of ER-8 FXRE reporter [fold]	concentration at which maximal activity is achieved [µM]	activity on minimal TK promoter (reporter without FXRE)
COC(=O)/C=C/c1cccc(N(Cc2ccc(-c3ccc(C(C)(C)C)cc3)cc2)C(=O)C(C)C)c1 [SRI-2]	little or no activity				
COC(=O)/C=C/c1cccc(N(Cc2ccc(-c3ccc(N(C)C)cc3)cc2)C(=O)C2CCCCC2)c1 [fexaramine]		100	4	1	
COC(=O)/C=C/c1cccc(N(Cc2ccc(-c3ccc4c(c3)OCO4)cc2)C(=O)C2CCCCC2)c1 [fexarine]		100	4	1	
COC(=O)/C=C/c1cccc(N(Cc2ccc(-c3ccccc3OC)cc2)C(=O)C(C)C)c1 [SRI-1]	little or no activity				
CC(C)c1onc(-c2c(Cl)cccc2Cl)c1COc1ccc(/C=C/c2cccc(C(=O)O)c2)c(Cl)c1 [GW4064, reference compound]		100	4	1	less than 2 fold
COC(=O)/C=C/c1cccc(N(Cc2ccc(/C=C/c3ccccc3)cc2)C(=O)C2CCCCC2)c1 [fexarene]		100	4	1	
